From patent US20200187502A1, “MICROBIOCIDAL OXADIAZOLE DERIVATIVES” (SYNGENTA PARTICIPATIONS AG, priority 2017, published 2020)

Legend:
[1] = tested on: Puccinia recondita f. Sp. Tritici; assay: Fungicidal activity, wheat leaf disc curative (brown rust); format: in vivo; details: foliar, 200 ppm in the applied formulation, wheat leaf segments cv. Kanzler, curative (applied 1 day after inoculation), compared to untreated control, 6 to 8 days after application, read-out: disease control
Experimental: (§1) Leaf disks or leaf segments of various plant species are cut from plants grown in a greenhouse. The cut leaf disks or segments are placed in multiwell plates (24-well format) onto water agar. The leaf disks are sprayed with a test solution before (preventative) or after (curative) inoculation. Compounds to be tested are prepared as DMSO solutions (max. 10 mg/ml) which are diluted to the appropriate concentration with 0.025% Tween20 just before spraying. The inoculated leaf disks or segments are incubated under defined conditions (temperature, relative humidity, light, etc.) according to the respective test system. A single evaluation of disease level is carried out 3 to 14 days after inoculation, depending on the pathosystem. Percent disease control relative to the untreated check leaf disks or segments is then calculated.
Wheat leaf segments cv. Kanzler are placed on agar in multiwell plates (24-well format). The leaf segments are then inoculated with a spore suspension of the fungus. Plates were stored in darkness at 19° C. and 75% relative humidity. The formulated test compound diluted in water was applied 1 day after inoculation. The leaf segments were incubated at 19° C. and 75% relative humidity under a light regime of 12 hours light/12 hours darkness in a climate cabinet and the activity of a compound was assessed as percent disease control compared to untreated when an appropriate level of disease damage appears in untreated check leaf segments (6 to 8 days after application).
(§2) The following compounds at 200 ppm in the applied formulation give at least 80% disease control in this test when compared to untreated control leaf disks under the same conditions, which show extensive disease development.

[2] = tested on: Glomerella lacenarium (Colletotrichum lacenarium); assay: Fungicidal activity, liquid culture, cucumber preventative (anthracnose); format: cell-based; details: 20 ppm in the applied formulation, liquid culture in PDB, inhibition of growth measured photometrically 3 to 4 days after application, compared to untreated control, read-out: disease control
Experimental: Mycelia fragments or conidia suspensions of a fungus prepared either freshly from liquid cultures of the fungus or from cryogenic storage, are directly mixed into nutrient broth. DMSO solutions of the test compound (max. 10 mg/ml) are diluted with 0.025% Tween20 by a factor of 50 and 10 μl of this solution is pipetted into a microtiter plate (96-well format). The nutrient broth containing the fungal spores/mycelia fragments is then added to give an end concentration of the tested compound. The test plates are incubated in the dark at 24° C. and 96% relative humidity. The inhibition of fungal growth is determined photometrically after 2 to 7 days, depending on the pathosystem, and percent antifungal activity relative to the untreated check is calculated.
Conidia of the fungus from cryogenic storage are directly mixed into nutrient broth (PDB—potato dextrose broth). After placing a (DMSO) solution of test compound into a microtiter plate (96-well format), the nutrient broth containing the fungal spores is added. The test plates are incubated at 24° C. and the inhibition of growth is measured photometrically 3 to 4 days after application.
The following compounds at 20 ppm in the applied formulation give at least 80% disease control in this test when compared to untreated control under the same conditions, which show extensive disease development.

[3] = tested on: Puccinia recondita f. Sp. Tritici; assay: Fungicidal activity, wheat leaf disc preventative (brown rust); format: in vivo; details: foliar, 200 ppm in the applied formulation, wheat leaf segments cv. Kanzler, compared to untreated control, 7 to 9 days after application, read-out: disease control
Experimental: as §1
Wheat leaf segments cv. Kanzler were placed on agar in multiwell plates (24-well format) and sprayed with the formulated test compound diluted in water. The leaf disks were inoculated with a spore suspension of the fungus 1 day after application. The inoculated leaf segments were incubated at 19° C. and 75% relative humidity (rh) under a light regime of 12 hours light/12 hours darkness in a climate cabinet and the activity of a compound was assessed as percent disease control compared to untreated when an appropriate level of disease damage appears in untreated check leaf segments (7 to 9 days after application).
as §2

## COC(C)C(=O)N(OC)C(C)c1ccc(-c2noc(C(F)(F)F)n2)s1 (stereo not shown) [Compound 1.49, N,2-dimethoxy-N-[1-[5-[5-(trifluoromethyl)-1,2,4-oxadiazol-3-yl]-2-thienyl]ethyl]propanamide]
[1]
  pest or weed control at 200 ppm: ≥ 80%
[2]
  inhibition of growth at 20 ppm: ≥ 80%

## COCCN(CCOC)C(=O)N(Cc1ccc(-c2noc(C(F)(F)F)n2)s1)OC [Compound 1.56, 1-methoxy-3,3-bis(2-methoxyethyl)-1-[[5-[5-(trifluoromethyl)-1,2,4-oxadiazol-3-yl]-2-thienyl]methyl]urea]
[1]
  pest or weed control at 200 ppm: ≥ 80%
[2]
  inhibition of growth at 20 ppm: ≥ 80%

## CON(Cc1ccc(-c2noc(C(F)(F)F)n2)s1)C(=O)N1CCCO1 [Compound 1.57, N-methoxy-N-[[5-[5-(trifluoromethyl)-1,2,4-oxadiazol-3-yl]-2-thienyl]methyl]isoxazolidine-2-carboxamide]
[1]
  pest or weed control at 200 ppm: ≥ 80%
[2]
  inhibition of growth at 20 ppm: ≥ 80%

## COC(C)C(=O)N(Cc1ccc(-c2noc(C(F)(F)F)n2)s1)C(C)C (stereo not shown) [Compound 4.18, N-isopropyl-2-methoxy-N-[[5-[5-(trifluoromethyl)-1,2,4-oxadiazol-3-yl]-2-thienyl]methyl]propanamide]
[1]
  pest or weed control at 200 ppm: ≥ 80%
[2]
  inhibition of growth at 20 ppm: ≥ 80%

## CCC(C)C(=O)N(CC)Cc1ccc(-c2noc(C(F)(F)F)n2)s1 (stereo not shown) [Compound 4.27, N-ethyl-2-methyl-N-[[5-[5-(trifluoromethyl)-1,2,4-oxadiazol-3-yl]-2-thienyl]methyl]butanamide]
[1]
  pest or weed control at 200 ppm: ≥ 80%
[2]
  inhibition of growth at 20 ppm: ≥ 80%

## CCC(C)C(=O)N(Cc1ccc(-c2noc(C(F)(F)F)n2)s1)C1CC1 (stereo not shown) [Compound 4.57, N-cyclopropyl-2-methyl-N-[[5-[5-(trifluoromethyl)-1,2,4-oxadiazol-3-yl]-2-thienyl]methyl]butanamide]
[1]
  pest or weed control at 200 ppm: ≥ 80%
[2]
  inhibition of growth at 20 ppm: ≥ 80%

## CCC(C)C(=O)N(Cc1ccc(-c2noc(C(F)(F)F)n2)s1)OCC(F)F (stereo not shown) [Compound 4.66, N-(2,2-difluoroethoxy)-2-methyl-N-[[5-[5-(trifluoromethyl)-1,2,4-oxadiazol-3-yl]-2-thienyl]methyl]butanamide]
[1]
  pest or weed control at 200 ppm: ≥ 80%
[2]
  inhibition of growth at 20 ppm: ≥ 80%

## Cc1ccc(S(=O)(=O)N(C)Cc2ccc(-c3noc(C(F)(F)F)n3)s2)cc1 [Compound 6.28, N,4-dimethyl-N-[[5-[5-(trifluoromethyl)-1,2,4-oxadiazol-3-yl]-2-thienyl]methyl]benzenesulfonamide]
[1]
  pest or weed control at 200 ppm: ≥ 80%

## CCS(=O)(=O)N(Cc1ccc(-c2noc(C(F)(F)F)n2)s1)C1CC1 [Compound 6.35, N-cyclopropyl-N-[[5-[5-(trifluoromethyl)-1,2,4-oxadiazol-3-yl]-2-thienyl]methyl]ethanesulfonamide]
[3]
  pest or weed control at 200 ppm: ≥ 80%
[2]
  inhibition of growth at 20 ppm: ≥ 80%

## O=S(=O)(C1CC1)N(Cc1ccc(-c2noc(C(F)(F)F)n2)s1)C1CC1 [Compound 6.38, N-cyclopropyl-N-[[5-[5-(trifluoromethyl)-1,2,4-oxadiazol-3-yl]-2-thienyl]methyl]cyclopropanesulfonamide]
[3]
  pest or weed control at 200 ppm: ≥ 80%
[2]
  inhibition of growth at 20 ppm: ≥ 80%

## CCCS(=O)(=O)N(Cc1ccc(-c2noc(C(F)(F)F)n2)s1)C1CC1 [Compound 6.39, N-cyclopropyl-N-[[5-[5-(trifluoromethyl)-1,2,4-oxadiazol-3-yl]-2-thienyl]methyl]propane-1-sulfonamide]
[3]
  pest or weed control at 200 ppm: ≥ 80%
[2]
  inhibition of growth at 20 ppm: ≥ 80%

## CCN(Cc1ccc(-c2noc(C(F)(F)F)n2)s1)C(=O)C(=O)CC(C)C [Compound 6.44, N-ethyl-4-methyl-2-oxo-N-[[5-[5-(trifluoromethyl)-1,2,4-oxadiazol-3-yl]-2-thienyl]methyl]pentanamide]
[3]
  pest or weed control at 200 ppm: ≥ 80%
[2]
  inhibition of growth at 20 ppm: ≥ 80%

## CCN(Cc1ccc(-c2noc(C(F)(F)F)n2)s1)C(=O)C(=O)c1cccs1 [Compound 6.45, N-ethyl-2-oxo-2-(2-thienyl)-N-[[5-[5-(trifluoromethyl)-1,2,4-oxadiazol-3-yl]-2-thienyl]methyl]acetamide]
[3]
  pest or weed control at 200 ppm: ≥ 80%
[2]
  inhibition of growth at 20 ppm: ≥ 80%

## CN(Cc1ccc(-c2noc(C(F)(F)F)n2)s1)C(=O)C(=O)Cc1ccccc1 [Compound 6.50, N-methyl-2-oxo-3-phenyl-N-[[5-[5-(trifluoromethyl)-1,2,4-oxadiazol-3-yl]-2-thienyl]methyl]propanamide]
[3]
  pest or weed control at 200 ppm: ≥ 80%
[2]
  inhibition of growth at 20 ppm: ≥ 80%

## O=C(C(=O)N(Cc1ccc(-c2noc(C(F)(F)F)n2)s1)C1CC1)c1ccccc1 [Compound 6.54, N-cyclopropyl-2-oxo-2-phenyl-N-[[5-[5-(trifluoromethyl)-1,2,4-oxadiazol-3-yl]-2-thienyl]methyl]acetamide]
[3]
  pest or weed control at 200 ppm: ≥ 80%
[2]
  inhibition of growth at 20 ppm: ≥ 80%

## CC(C)(C)C(=O)C(=O)N(Cc1ccc(-c2noc(C(F)(F)F)n2)s1)C1CC1 [Compound 6.55, N-cyclopropyl-3,3-dimethyl-2-oxo-N-[[5-[5-(trifluoromethyl)-1,2,4-oxadiazol-3-yl]-2-thienyl]methyl]butanamide]
[3]
  pest or weed control at 200 ppm: ≥ 80%
[2]
  inhibition of growth at 20 ppm: ≥ 80%

## CC(C)CC(=O)C(=O)N(Cc1ccc(-c2noc(C(F)(F)F)n2)s1)C1CC1 [Compound 6.58, N-cyclopropyl-4-methyl-2-oxo-N-[[5-[5-(trifluoromethyl)-1,2,4-oxadiazol-3-yl]-2-thienyl]methyl]pentanamide]
[3]
  pest or weed control at 200 ppm: ≥ 80%
[2]
  inhibition of growth at 20 ppm: ≥ 80%

## O=C(C(=O)N(Cc1ccc(-c2noc(C(F)(F)F)n2)s1)C1CC1)c1cccs1 [Compound 6.59, N-cyclopropyl-2-oxo-2-(2-thienyl)-N-[[5-[5-(trifluoromethyl)-1,2,4-oxadiazol-3-yl]-2-thienyl]methyl]acetamide]
[3]
  pest or weed control at 200 ppm: ≥ 80%
[2]
  inhibition of growth at 20 ppm: ≥ 80%

## O=C(C(=O)N(Cc1ccc(-c2noc(C(F)(F)F)n2)s1)C1CC1)c1ccco1 [Compound 6.60, N-cyclopropyl-2-(2-furyl)-2-oxo-N-[[5-[5-(trifluoromethyl)-1,2,4-oxadiazol-3-yl]-2-thienyl]methyl]acetamide]
[3]
  pest or weed control at 200 ppm: ≥ 80%
[2]
  inhibition of growth at 20 ppm: ≥ 80%

## O=C(C(=O)N(Cc1ccc(-c2noc(C(F)(F)F)n2)s1)OCC(F)F)c1ccccc1 [Compound 6.61, N-(2,2-difluoroethoxy)-2-oxo-2-phenyl-N-[[5-[5-(trifluoromethyl)-1,2,4-oxadiazol-3-yl]-2-thienyl]methyl]acetamide]
[3]
  pest or weed control at 200 ppm: ≥ 80%
[2]
  inhibition of growth at 20 ppm: ≥ 80%

## O=C(C(=O)N(Cc1ccc(-c2noc(C(F)(F)F)n2)s1)OCC(F)F)c1cccs1 [Compound 6.63, N-(2,2-difluoroethoxy)-2-oxo-2-(2-thienyl)-N-[[5-[5-(trifluoromethyl)-1,2,4-oxadiazol-3-yl]-2-thienyl]methyl]acetamide]
[3]
  pest or weed control at 200 ppm: ≥ 80%
[2]
  inhibition of growth at 20 ppm: ≥ 80%

## O=C(C(=O)N(Cc1ccc(-c2noc(C(F)(F)F)n2)s1)OCC(F)F)c1ccco1 [Compound 6.64, N-(2,2-difluoroethoxy)-2-(2-furyl)-2-oxo-N-[[5-[5-(trifluoromethyl)-1,2,4-oxadiazol-3-yl]-2-thienyl]methyl]acetamide]
[3]
  pest or weed control at 200 ppm: ≥ 80%
[2]
  inhibition of growth at 20 ppm: ≥ 80%
